Experimental data from the CheMixHub viscosity set.

Test: xn = mol fraction of the nth substance listed

COCCO + CCCCCO
viscosity [mPa·s]
Details	298.15 K	308.15 K	318.15 K
101 kPa, x1 = 0.114	2.939	2.12	1.659
101 kPa, x1 = 0.2246	2.569	1.894	1.525
101 kPa, x1 = 0.3317	2.346	1.724	1.427
101 kPa, x1 = 0.4357	2.155	1.543	1.279
101 kPa, x1 = 0.5367	2.007	1.442	1.234
101 kPa, x1 = 0.6347	1.894	1.413	1.222
101 kPa, x1 = 0.7299	1.8	1.306	1.208
101 kPa, x1 = 0.8225	1.72	1.254	1.035
101 kPa, x1 = 0.9125	1.686	1.249	1.036
101.33 kPa, x1 = 0.1741	–	1.966	–
101.33 kPa, x1 = 0.2604	–	1.804	–
101.33 kPa, x1 = 0.3455	–	1.665	–
101.33 kPa, x1 = 0.4796	–	1.511	–
101.33 kPa, x1 = 0.6102	–	1.385	–
101.33 kPa, x1 = 0.7245	–	1.309	–
101.33 kPa, x1 = 0.78	–	1.284	–
101.33 kPa, x1 = 0.9014	–	1.23	–

CCCC(=O)O + O=[N+]([O-])c1ccccc1
viscosity [mPa·s], 101 kPa
Details	x2 = 0.1103	x2 = 0.2181	x2 = 0.3235	x2 = 0.4266	x2 = 0.5274	x2 = 0.6259	x2 = 0.7225	x2 = 0.8169	x2 = 0.9094
298.15 K	1.829	1.83	1.837	1.841	1.837	1.82	1.786	1.732	1.653
308.15 K	1.531	1.564	1.59	1.604	1.603	1.582	1.539	1.473	1.381
318.15 K	1.355	1.458	1.527	1.56	1.559	1.523	1.455	1.354	1.22

C1CCNCC1 + CCOC(C)=O
303.15 K, 101 kPa
Details	viscosity [mPa·s]
x1 = 0.1	0.45
x1 = 0.2	0.49
x1 = 0.3	0.53
x1 = 0.4	0.565
x1 = 0.5	0.625
x1 = 0.6	0.71
x1 = 0.7	0.795
x1 = 0.8	0.895
x1 = 0.9	1.04

CCCC(C)O (configuration not stated) + Cc1ccccc1
viscosity [mPa·s], 101 kPa
Details	x1 = 0.1002	x1 = 0.1998	x1 = 0.2999	x1 = 0.3994	x1 = 0.5004	x1 = 0.6006	x1 = 0.6993	x1 = 0.8004	x1 = 0.8998
303.15 K	0.5378	0.5727	0.629	0.6912	0.7892	0.9188	1.129	1.428	1.926
308.15 K	0.5072	0.5384	0.5879	0.6416	0.7284	0.836	1.012	1.259	1.656
313.15 K	0.4802	0.5063	0.5503	0.5965	0.6696	0.7628	0.9099	1.114	1.435
318.15 K	0.4548	0.4776	0.517	0.5583	0.6236	0.7009	0.8268	0.9944	1.26
323.15 K	0.4322	0.4524	0.4862	0.5226	0.5786	0.6466	0.7539	0.8904	1.11

CCCC(=O)O + c1ccccc1
298.15 K, 101 kPa
Details	viscosity [mPa·s]
x1 = 0.04	0.612
x1 = 0.09	0.624
x1 = 0.14	0.639
x1 = 0.18	0.656
x1 = 0.37	0.747
x1 = 0.47	0.808
x1 = 0.57	0.903
x1 = 0.78	1.1

COCCO + CCCCCCO
viscosity [mPa·s], 101 kPa
Details	x1 = 0.1298	x1 = 0.2513	x1 = 0.3653	x1 = 0.4723	x1 = 0.5731	x1 = 0.6682	x1 = 0.758	x1 = 0.843	x1 = 0.9236
298.15 K	3.765	3.225	2.811	2.458	2.25	2.076	1.94	1.815	1.707
308.15 K	2.612	2.233	2.027	1.815	1.667	1.487	1.356	1.303	1.273
318.15 K	2.193	1.908	1.648	1.477	1.356	1.278	1.211	1.129	1.083

CCOC(=O)C(=O)OCC + Cc1ccccc1
viscosity [mPa·s], 101 kPa
Details	303.15 K	313.15 K	323.15 K
x1 = 0.0804	0.5603	–	–
x1 = 0.1006	0.581	0.516	0.465
x1 = 0.1644	0.5912	–	–
x1 = 0.2019	0.651	0.578	0.514
x1 = 0.2523	0.6413	–	–
x1 = 0.3013	0.725	0.646	0.571
x1 = 0.3443	0.7072	–	–
x1 = 0.4005	0.811	0.712	0.628
x1 = 0.4403	0.7809	–	–
x1 = 0.502	0.907	0.788	0.691
x1 = 0.5414	0.8798	–	–
x1 = 0.6024	1.028	0.887	0.77
x1 = 0.6481	1.007	–	–
x1 = 0.6988	1.151	0.988	0.855
x1 = 0.7597	1.167	–	–
x1 = 0.7971	1.289	1.095	0.943
x1 = 0.8762	1.38	–	–
x1 = 0.8936	1.442	1.222	1.044

CCOC(=O)C(=O)OCC + ClC(Cl)(Cl)Cl
303.15 K, 101 kPa
Details	viscosity [mPa·s]
x1 = 0.0736	0.915
x1 = 0.1516	0.997
x1 = 0.2345	1.074
x1 = 0.3227	1.155
x1 = 0.4171	1.24
x1 = 0.5177	1.323
x1 = 0.6259	1.402
x1 = 0.7414	1.482
x1 = 0.8658	1.574

CCCC(=O)O + CC#N
viscosity [mPa·s], 101 kPa
Details	x1 = 0.0598	x1 = 0.1252	x1 = 0.1971	x1 = 0.2763	x1 = 0.3641	x1 = 0.4621	x1 = 0.572	x1 = 0.6961	x1 = 0.8375
298.15 K	0.3944	0.4377	0.5044	0.5968	0.717	0.8653	1.039	1.229	1.415
308.15 K	0.3452	0.3849	0.4455	0.5285	0.6349	0.7632	0.9084	1.058	1.187
318.15 K	0.3146	0.3681	0.4272	0.4922	0.5632	0.6398	0.7209	0.8039	0.8836

CC(=O)OCC(C)C + Cc1ccccc1C
viscosity [mPa·s], 101 kPa
Details	x1 = 0.0918	x1 = 0.1798	x1 = 0.2716	x1 = 0.3504	x1 = 0.4528	x1 = 0.5735	x1 = 0.6718	x1 = 0.7786	x1 = 0.8691	x1 = 0.9514
303.15 K	0.694	0.688	0.681	0.675	0.667	0.659	0.653	0.648	0.644	0.641
313.15 K	0.613	0.606	0.6	0.595	0.59	0.585	0.582	0.58	0.578	0.58

CCCC(=O)O + CNC=O
viscosity [mPa·s], 100 kPa
Details	x2 = 0.1187	x2 = 0.1967	x2 = 0.2806	x2 = 0.3708	x2 = 0.5026	x2 = 0.6111	x2 = 0.6888	x2 = 0.7711	x2 = 0.9041
303.15 K	1.415	1.434	1.455	1.476	1.504	1.524	1.537	1.55	1.57
308.15 K	1.275	1.296	1.317	1.34	1.37	1.393	1.408	1.423	1.447
313.15 K	1.136	1.159	1.183	1.208	1.242	1.269	1.286	1.305	1.334
318.15 K	0.9979	1.024	1.052	1.08	1.12	1.152	1.174	1.197	1.233

CCCC(=O)O + c1ccncc1
293.15 K, 101 kPa
Details	viscosity [mPa·s]
x2 = 0.152	3.474
x2 = 0.256	3.89
x2 = 0.429	3.36
x2 = 0.528	2.674
x2 = 0.642	1.996
x2 = 0.818	1.29

CC(=O)OC(C)C + CCc1ccccc1
viscosity [mPa·s], 101 kPa
Details	x1 = 0.1056	x1 = 0.2037	x1 = 0.3116	x1 = 0.4048	x1 = 0.5112	x1 = 0.6089	x1 = 0.7156	x1 = 0.811	x1 = 0.9403
303.15 K	0.582	0.567	0.551	0.538	0.523	0.51	0.496	0.484	0.467
313.15 K	0.523	0.509	0.494	0.482	0.469	0.457	0.445	0.434	0.42

CC(=O)OC(C)C + Cc1cc(C)cc(C)c1
308.15 K, 101 kPa
Details	viscosity [mPa·s]
x2 = 0.09942	0.4428
x2 = 0.197	0.4556
x2 = 0.3029	0.4738
x2 = 0.3917	0.4812
x2 = 0.4993	0.5032
x2 = 0.5992	0.5127
x2 = 0.6918	0.5289
x2 = 0.7944	0.539
x2 = 0.9024	0.5596

CCCCNCCCC + CCCCOCCO
viscosity [mPa·s], 100 kPa
Details	298.15 K	303.15 K	308.15 K
x2 = 0.0501	0.94	0.85	0.8
x2 = 0.1169	1.1	1.01	0.93
x2 = 0.1502	1.19	1.07	1
x2 = 0.2006	1.34	1.17	1.08
x2 = 0.3001	1.58	1.35	1.25
x2 = 0.4001	1.82	1.55	1.43
x2 = 0.5	2.14	1.83	1.63
x2 = 0.5999	2.42	2.12	1.84
x2 = 0.6998	2.7	2.33	2.09
x2 = 0.8	2.97	2.5	2.28
x2 = 0.8965	3.1	2.61	2.38
x2 = 0.95	2.97	2.56	2.32

C1CC[C@H]2CCCC[C@H]2C1 + CC1CCCCC1
viscosity [mPa·s], 100 kPa
Details	x2 = 0.125	x2 = 0.25	x2 = 0.375	x2 = 0.5	x2 = 0.625	x2 = 0.75	x2 = 0.875
293.15 K	2.749	2.287	1.867	1.541	1.3	1.076	0.894
303.15 K	2.241	1.912	1.567	1.312	1.096	0.935	0.776
313.15 K	1.858	1.6	1.326	1.123	0.944	0.824	0.674
323.15 K	1.578	1.367	1.168	0.986	0.837	0.701	0.604

CCCCBr + CCCCO
viscosity [mPa·s], 101.33 kPa
Details	x2 = 0.1114	x2 = 0.2168	x2 = 0.3241	x2 = 0.4255	x2 = 0.5172	x2 = 0.6158	x2 = 0.7127	x2 = 0.7911	x2 = 0.8968
298.15 K	0.63	0.685	0.759	0.86	0.983	1.158	1.394	1.636	2.046
308.15 K	0.554	0.588	0.638	0.706	0.793	0.918	1.086	1.261	1.581
318.15 K	0.495	0.522	0.561	0.613	0.679	0.771	0.899	1.029	1.264

CCOC(=O)C(=O)OCC + ClC(Cl)Cl
303.15 K, 101 kPa
Details	viscosity [mPa·s]
x1 = 0.0624	0.606
x1 = 0.1302	0.712
x1 = 0.2043	0.825
x1 = 0.2854	0.942
x1 = 0.3747	1.051
x1 = 0.473	1.157
x1 = 0.5831	1.28
x1 = 0.7057	1.399
x1 = 0.8436	1.539
